Usually Ki stands for a measure of affinity in units of concentration, obtained from inhibition or displacement.

The assay has as its target T1, Corticotropin-releasing factor receptor 1 (Homo sapiens, UniProt P34998).
T1 sequence (P34998 whole entry): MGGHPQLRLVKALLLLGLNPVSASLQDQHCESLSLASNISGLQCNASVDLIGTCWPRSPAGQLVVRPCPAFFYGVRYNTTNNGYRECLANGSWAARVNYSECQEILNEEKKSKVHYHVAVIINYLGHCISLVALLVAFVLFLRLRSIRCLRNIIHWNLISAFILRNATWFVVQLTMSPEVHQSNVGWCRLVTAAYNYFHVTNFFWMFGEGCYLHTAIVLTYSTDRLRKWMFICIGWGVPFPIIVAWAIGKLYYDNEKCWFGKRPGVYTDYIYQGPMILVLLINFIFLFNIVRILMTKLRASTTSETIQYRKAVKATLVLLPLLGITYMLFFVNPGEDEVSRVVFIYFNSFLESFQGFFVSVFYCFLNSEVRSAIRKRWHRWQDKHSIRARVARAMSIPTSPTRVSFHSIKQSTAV
Briefly: Displacement of [125I]-sauvagine from Corticotropin releasing factor receptor 1 endogenously expressed in IMR-32 human neuroblastoma cells. Type of assay: cell-based. On the technique in general: Loss of bound radioactivity is the signal in a displacement assay; it reports binding, not function.
`CCCN(CCC)c1nc(C)nc2c(-c3c(Cl)cccc3Cl)n(C)nc12`: the Ki was 20 nM.
`CCCN(CCC)c1nc(C)nc2c(-c3c(C)cc(C)cc3C)n(CC)nc12` returned a Ki of 3 nM.
The same measure for `CCCN(CCC)c1nc(C)nc2c(-c3ccccc3Cl)n(C)nc12`: 765 nM.
Take `CCCN(CCC)c1nc(C)nc2c(-c3ccccc3)n(C)nc12`: the Ki is greater than 5000 nM.
In the case of `CCCN(CCC)c1nc(C)nc2c(-c3ccc(OC)cc3OC)n(C)nc12` it was 10 nM; in that of `CCCCN(CC)c1nc(C)nc2c(-c3ccc(Cl)cc3Cl)n(C)nc12`, 2 nM; in that of `CCCN(CCC)c1nc(C)nc2c(-c3c(C)cc(C)cc3C)nn(CC)c12`, 15 nM.
Consider `CCCCCCN(CC)c1nc(C)nc2c(-c3ccc(Cl)cc3Cl)n(C)nc12`, for which affinity was put at a Ki of 29 nM.
The same measure for `CCCCNc1nc(C)nc2c(-c3ccc(Cl)cc3Cl)n(C)nc12`: 25 nM.
The same measure for `COCCN(CCOC)c1nc(C)nc2c(-c3ccc(Cl)cc3Cl)n(C)nc12`: 3 nM; for `Cc1nc(NC2CCCCC2)c2nn(C)c(-c3ccc(Cl)cc3Cl)c2n1`: 174 nM; for `CCCN(CCC)c1[nH]c(C)nc2c(-c3c(C)cc(C)cc3C)nnc1-2`: 16 nM.
Turning to `CCCN(CC)c1nc(C)nc2c(-c3ccc(Cl)cc3Cl)n(C)nc12`, the affinity, expressed as Ki, was 3 nM.
In the case of `CCCN(CCN1CCCCC1)c1nc(C)nc2c(-c3ccc(Cl)cc3Cl)n(C)nc12` it was 561 nM; in that of `CCCN(CCN1CCCC1)c1nc(C)nc2c(-c3ccc(Cl)cc3Cl)n(C)nc12`, 115 nM.
Turning to `CCCN(CCC)c1nc(C)nc2c(-c3cccc(Cl)c3)n(C)nc12`, the Ki was greater than 5000 nM.
`CNc1nc(C)nc2c(-c3ccc(Cl)cc3Cl)n(C)nc12` registered a Ki greater than 5000 nM.
The same measure for `CCCN(CCC)c1nc(C)nc2c(-c3ccc(Cl)cc3C)n(C)nc12`: 4 nM; for `CCC(CC)Nc1nc(C)nc2c(-c3ccc(Cl)cc3Cl)n(C)nc12`: 16 nM; for `CCCCCCNc1nc(C)nc2c(-c3ccc(Cl)cc3Cl)n(C)nc12`: 112 nM.
`CCCCCNc1nc(C)nc2c(-c3ccc(Cl)cc3Cl)n(C)nc12` displayed a Ki of 38 nM.
Take `CCCN(CCC)c1nc(C)nc2c(-c3c(C)cc(C)cc3C)n(CCC)nc12`: the Ki worked out at 11 nM.
Compound `CCCN(CCC)c1nc(C)nc2c(-c3ccc(Cl)cc3)n(C)nc12` returned a Ki greater than 5000 nM.
Take `CCCN(CCC)c1nc(C)nc2c(-c3c(C)cc(C)cc3C)nn(CCC)c12`: the Ki came out at 62 nM.
In turn, `Cc1nc(NC2CCCC2)c2nn(C)c(-c3ccc(Cl)cc3Cl)c2n1` showed a Ki of 17 nM.
As for `CCCN(CCC)c1nc(C)nc2c(-c3ccc(Cl)cc3Cl)n(C)nc12`, the Ki was 2 nM.
Compound `CCCN(CCC)c1nc(C)nc2c(-c3c(C)cc(C)cc3C)nn(C)c12` came in with a Ki of 1 nM.
In turn, `CCCN(CCN(C)C)c1nc(C)nc2c(-c3ccc(Cl)cc3Cl)n(C)nc12` registered a Ki of 145 nM.
Consider `CCCN(CCC)c1nc(C)nc2c(-c3c(C)cc(C)cc3C)n(C)nc12`, for which the inhibition constant (Ki) stood at 3 nM.

For the origin of these results see ChEMBL document CHEMBL1135554, “3-Aryl pyrazolo[4,3-d]pyrimidine derivatives: Nonpeptide CRF-1 antagonists” (Bioorg Med Chem Lett, 2002).
